Assay results reported in BindingDB's records for doi:10.7270/Q2NS0SBF (Burnham Center For Chemical Genomics, 2010).

Target: Mu-type opioid receptor (Homo sapiens, UniProt P35372)
Assay: MOR agonists by imaging, SAR follow-up, image-based (AID 2352)

Chain of Mu-type opioid receptor (P35372 whole entry): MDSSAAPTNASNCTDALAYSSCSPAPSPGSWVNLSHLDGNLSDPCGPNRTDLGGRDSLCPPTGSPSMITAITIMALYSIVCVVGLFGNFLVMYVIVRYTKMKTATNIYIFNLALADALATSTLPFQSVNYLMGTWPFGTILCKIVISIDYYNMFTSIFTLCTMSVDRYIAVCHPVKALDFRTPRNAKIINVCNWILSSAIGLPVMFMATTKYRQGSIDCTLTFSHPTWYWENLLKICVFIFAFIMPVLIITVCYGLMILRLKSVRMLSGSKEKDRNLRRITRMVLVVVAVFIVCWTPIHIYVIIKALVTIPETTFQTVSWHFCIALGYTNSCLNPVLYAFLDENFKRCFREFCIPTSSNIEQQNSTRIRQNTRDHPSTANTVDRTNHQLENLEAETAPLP

EC50 [µM] | SMILES
25.3 | CCC(N=Nc1ccnc2cc(Cl)ccc12)c1ccc(O)cc1 (configuration not stated) [4-[1-[2-(7-chloroquinolin-4-yl)hydrazinyl]propylidene]cyclohexa-2,5-dien-1-one]
> 32 | Oc1ccc(CN=Nc2ccnc3cc(Cl)ccc23)cc1O [(4Z)-4-[[2-(7-chloroquinolin-4-yl)hydrazinyl]methylidene]-2-hydroxycyclohexa-2,5-dien-1-one]
